Data taken from patent publication US4199568A, “Tetrapeptide amides” (Reckitt & Colman Products Limited, priority 1977, dated 1980).

Experiments:
[1] = tested on: opiate receptor sites; test: transmurally stimulated guinea pig ileum preparation (Kosterlitz and Watt), agonist activity compared with Met-enkephaline; assay type: cell-based; settings: isolated guinea pig ileum twitch response, 0.1 Hz stimulation; dose response curve compared with Met-enkephaline
From the text: Thus for example they have affinity for opiate receptor sites and as such may be useful as anagesics, narcotic antagonists or anti-diarrhoeal agents. The test used for the detection of their agonist activity at opiate receptor sites is that of employing the transmurally stimulated guinea pig ileum preparation described in Kosterlitz H. W., and Watt A. J., Brit. J. Pharmacol, and Chemotherapy 33, […] (1968).
In the above mentioned test method of Kosterlitz and Watt male or female guinea pigs (Duncan Hartley strain) are killed by a blow on the head and a portion of the ileum removed and set up in an isolated organ bath of 50 ml volume. A `twitch` response is produced by low frequency (0.1 Hz) stimulation with 0.5 msec rectilinear pulses. The response is depressed by a large number of different pharmacologically active agents (local anaesthetics, smooth muscle depressants, presynaptic α-receptor stimulants, and narcotic agonists).
A test compound is dissolved in distilled water to produce a stock solution of concentration 1 mg/ml. Serial dilutions are carried out using Krebs solution to product concentrations of 10 ug, 1 ug and 0.1 ug/ml. The compound is tested by adding between 0.1-0.3 ml of the solutions to the organ bath. A dose response curve is then drawn and compared with that for Met-enkephaline.

[2] = tested on: phenylquinone induced writhing; test: mouse phenylquinone induced writhing test (Hendershot and Forsaith); assay type: in vivo; settings: administered i.v.
Method: The compounds were also evaluated in the mouse phenylquinone induced writhing test of Hendershot L. C. and Forsaith J., J. Pharm. Exp. Therap.

C[C@@H](NC(=O)[C@@H](N)Cc1ccc(O)cc1)C(=O)NCC(=O)N(C)[C@@H](Cc1ccccc1)C(=O)NCCC[S+](C)[O-].Cl (stereo partly drawn) [H-Tyr-D-Ala-Gly-MePhe-NH(CH2)3 SOMe, L-Tyrosyl-D-alanyl-glycyl-N-methyl-L-phenylalanine-3-methylsulphinylpropylamide hydrochloride]
activity relative to Met-enkephaline [1]: approximately eleven
ED50 [2]: 4.5 µg/kg

CN[C@@H](Cc1ccc(O)cc1)C(=O)N[C@H](C)C(=O)NCC(=O)N(C)[C@@H](Cc1ccccc1)C(=O)NCCC[S+](C)[O-].Cl (stereo partly drawn) [Me-Tyr-D-Ala-Gly-MePhe-NH(CH2)3 SOMe, N-Methyl-L-tyrosyl-D-alanyl-glycyl-N-methyl-L-phenylalanine-3-methylsulphinylpropylamide hydrochloride]
activity relative to Met-enkephaline [1]: approximately fifteen
ED50 [2]: 4 µg/kg
